Activity calls are given as the source filed them. Where only a bound is given, the exact number is not on record here.

The target of test [1] is T1, 1-phosphatidylinositol 4,5-bisphosphate phosphodiesterase beta-3 (Homo sapiens, UniProt Q01970).
T1 sequence (Q01970 whole entry): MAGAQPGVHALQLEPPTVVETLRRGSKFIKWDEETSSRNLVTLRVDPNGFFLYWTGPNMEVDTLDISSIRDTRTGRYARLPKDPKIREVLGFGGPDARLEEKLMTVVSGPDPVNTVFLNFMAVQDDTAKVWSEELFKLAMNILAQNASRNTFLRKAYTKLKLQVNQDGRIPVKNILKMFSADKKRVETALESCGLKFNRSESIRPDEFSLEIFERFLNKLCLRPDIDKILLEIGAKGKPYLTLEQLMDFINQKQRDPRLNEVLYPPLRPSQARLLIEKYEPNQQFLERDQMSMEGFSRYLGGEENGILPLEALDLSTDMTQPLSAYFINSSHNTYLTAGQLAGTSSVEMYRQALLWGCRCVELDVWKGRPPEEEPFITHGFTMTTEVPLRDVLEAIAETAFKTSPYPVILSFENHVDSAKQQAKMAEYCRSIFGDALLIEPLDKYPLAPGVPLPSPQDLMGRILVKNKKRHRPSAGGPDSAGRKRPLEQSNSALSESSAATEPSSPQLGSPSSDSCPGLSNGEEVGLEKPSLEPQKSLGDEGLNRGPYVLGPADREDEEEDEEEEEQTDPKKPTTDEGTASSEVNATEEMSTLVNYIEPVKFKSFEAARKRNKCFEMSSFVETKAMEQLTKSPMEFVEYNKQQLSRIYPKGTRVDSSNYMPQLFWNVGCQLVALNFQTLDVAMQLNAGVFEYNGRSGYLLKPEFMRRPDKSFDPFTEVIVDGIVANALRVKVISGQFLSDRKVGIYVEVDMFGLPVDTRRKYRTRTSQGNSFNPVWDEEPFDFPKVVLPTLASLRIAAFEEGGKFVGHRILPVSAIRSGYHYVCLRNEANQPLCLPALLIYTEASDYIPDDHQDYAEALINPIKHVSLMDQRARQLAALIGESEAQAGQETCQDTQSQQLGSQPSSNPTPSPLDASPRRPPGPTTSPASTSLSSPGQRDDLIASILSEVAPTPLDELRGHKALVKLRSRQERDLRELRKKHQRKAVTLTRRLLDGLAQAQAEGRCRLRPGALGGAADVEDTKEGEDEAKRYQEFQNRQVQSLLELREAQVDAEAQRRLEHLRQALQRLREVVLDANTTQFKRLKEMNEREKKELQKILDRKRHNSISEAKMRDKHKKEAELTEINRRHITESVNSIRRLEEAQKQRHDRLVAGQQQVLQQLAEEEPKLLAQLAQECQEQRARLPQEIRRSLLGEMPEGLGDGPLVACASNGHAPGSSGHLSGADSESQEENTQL
Briefly: Fluorescence-based biochemical high throughput dose response assay to identify inhibitors of phospholipase C isozymes (PLC-B3).

Test [2] addresses T2, Endoribonuclease toxin MazF (Escherichia coli K-12, UniProt P0AE70).
T2 sequence (P0AE70 whole entry): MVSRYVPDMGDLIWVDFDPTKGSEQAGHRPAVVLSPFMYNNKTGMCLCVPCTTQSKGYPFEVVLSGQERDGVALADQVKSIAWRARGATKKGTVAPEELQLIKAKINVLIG
Briefly: MazF toxin RNase activators, dose response, biochemical, fluorescence, single-stranded RNA substrate, uHTS hits (AID 588481). In kind it is functional.

Test [3] is described as follows: Intein inhibitors as potential Tuberculosis drugs, a cytotoxicity screen. [Related pubchem assays (depositor defined):AID2221, AID2223, AID434968, AID435010, AID449749, AID449750, AID489010]. The format is functional.
A short description of test [4]: inhibitors of SNCA 5'UTR-driven reporter translation, confirmation, H4 neuroglioma cells, luminescence (AID 1988). The format is functional, cell-based.
The target of test [5] is T3, Streptokinase A (Streptococcus pyogenes serotype M1, UniProt P10520).
T3 sequence (P10520 whole entry): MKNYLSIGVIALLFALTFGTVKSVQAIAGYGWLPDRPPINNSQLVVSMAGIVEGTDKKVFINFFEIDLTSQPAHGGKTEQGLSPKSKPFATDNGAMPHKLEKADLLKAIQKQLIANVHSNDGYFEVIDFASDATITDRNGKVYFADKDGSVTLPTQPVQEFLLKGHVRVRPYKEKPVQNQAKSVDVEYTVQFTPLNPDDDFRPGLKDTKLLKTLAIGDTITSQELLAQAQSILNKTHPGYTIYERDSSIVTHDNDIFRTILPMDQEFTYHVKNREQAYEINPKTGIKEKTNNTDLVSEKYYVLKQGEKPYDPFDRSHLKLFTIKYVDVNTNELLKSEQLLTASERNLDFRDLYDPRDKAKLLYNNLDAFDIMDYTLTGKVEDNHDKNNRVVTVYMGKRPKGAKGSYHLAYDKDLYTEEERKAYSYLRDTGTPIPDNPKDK
In words: S. pyogenes streptokinase expression inhibitors, potency, dose response, plasminogen activation absorbance, OD405 (AID 1914).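 Note: secreted streptokinase activity via plasminogen activation per viability signal from cell pellet.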 The format is functional, Streptococcus pyogenes M1 GAS.

Test [6] concerns the target T4, Mannose-6-phosphate isomerase (Homo sapiens, UniProt P34949).
T4 sequence (P34949 whole entry): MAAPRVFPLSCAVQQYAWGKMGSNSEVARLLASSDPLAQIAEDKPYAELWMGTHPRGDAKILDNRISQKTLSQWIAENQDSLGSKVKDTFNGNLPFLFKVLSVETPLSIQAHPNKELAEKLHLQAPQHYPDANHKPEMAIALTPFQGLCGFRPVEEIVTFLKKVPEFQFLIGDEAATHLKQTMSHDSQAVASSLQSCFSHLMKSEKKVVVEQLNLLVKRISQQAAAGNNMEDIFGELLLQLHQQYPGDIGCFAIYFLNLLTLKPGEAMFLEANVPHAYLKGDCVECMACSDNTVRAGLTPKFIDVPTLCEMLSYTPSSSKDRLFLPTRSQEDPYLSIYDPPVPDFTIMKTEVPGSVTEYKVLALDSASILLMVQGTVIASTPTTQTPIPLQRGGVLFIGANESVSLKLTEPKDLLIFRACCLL
Briefly: human PMI inhibitors, high substrate, primary screen, biochemical, fluorescence intensity, high mannose 6-phosphate (AID 1220).

Test [7] is described as follows: growth suppression of beta-catenin-knockout colon cells, dose response, cell-based, HCT116, human colon tumor (AID 1045).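 Note: HCT116 colon tumor cells with beta catenin knocked out; cells exposed to compound for 60 hours.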 The format is functional.
Test [8] concerns the target T5, Tyrosine-protein phosphatase non-receptor type 7 (Homo sapiens, UniProt P35236).
T5 sequence (P35236 whole entry): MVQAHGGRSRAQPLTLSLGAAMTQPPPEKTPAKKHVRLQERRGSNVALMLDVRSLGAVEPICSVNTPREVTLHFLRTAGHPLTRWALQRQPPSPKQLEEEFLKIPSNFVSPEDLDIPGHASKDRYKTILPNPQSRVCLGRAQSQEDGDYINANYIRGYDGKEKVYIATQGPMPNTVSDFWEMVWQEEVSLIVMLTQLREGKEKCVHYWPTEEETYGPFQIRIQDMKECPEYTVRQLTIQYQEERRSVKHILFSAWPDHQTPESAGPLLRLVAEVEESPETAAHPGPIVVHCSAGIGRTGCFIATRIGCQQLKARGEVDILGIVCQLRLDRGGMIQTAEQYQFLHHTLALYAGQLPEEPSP
The format is functional.
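Throughout, for CC50: cells exposed to compound for 72 hours before luminescence readout.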

As usually defined, the IC50 is the point on the concentration scale where inhibition reaches its midpoint. With `O=C(CCN1C(=O)/C(=C\c2ccco2)SC1=S)Nc1ccc(C(=O)O)c(O)c1`, in test [1], the IC50 is > 122 µM (inactive).
What is called EC50 is the concentration giving half of the maximal effect. Turning to `O=C1C=C(c2c(O)ccc3ccccc23)c2ccccc2C1=O`, in test [2], the EC50 was 7.31 µM (active).
The term CC50 denotes the concentration that lowers cell viability or growth by half. For the molecule `Cc1nc2c(=O)n(C)c(=O)nc-2n(C)n1`, the CC50 in test [3] was 7.94 µM (active). Also, the figures for the EC50 in test [4], in test [5] and in test [7] were 0.136 µM (active), > 150 µM (not active) and 0.781 µM (active), respectively. Also, the IC50 in test [6] is 6.09 µM (active); in test [8], < 1.24 µM (active).

The record behind these values is ChEMBL document CHEMBL1201862, “PubChem BioAssay data set” (2004).
